Reference: patent US9234005B2 (priority 2011, dated 2016)
Read-outs that look alike come from different tables or passages of the source. No end group written: not given here.

How the values were obtained:
PTPN4-PDZ [1] = molecular target: T1, PTPN4-PDZ (Homo sapiens, UniProt P29074, S499G); assay: biochemical; assay type: binding; parameters: PTPN4-PDZ (residues G499-N604, G499 being a non-native residue due to the TEV cleavage site); GST (N, cleaved yes); made in house; host or cells: Escherichia coli BL21 (DE3) star
T1 sequence (P29074 499-604 S499G): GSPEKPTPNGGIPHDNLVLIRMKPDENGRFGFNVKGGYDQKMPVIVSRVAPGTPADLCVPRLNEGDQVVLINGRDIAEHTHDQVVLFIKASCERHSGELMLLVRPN

U373MG astrocytoma cells = assay type: cell-based, human
[2] = tested on: neuroblastoma cell line SK-N-SH; conditions: cited from earlier work
PTPN4-PDZ [3] = molecular target: T1, PTPN4-PDZ; assay: biochemical
[4] = Kd for PTPN4-PDZ (dissociation constant, text)

| Substance | Kd (PTPN4-PDZ [1]; Kd, affinity for PTPN4-PDZ) [µM] | cell death (% of dead cells among peptide loaded cells) (U373MG astrocytoma cells) | Kd (PTPN4-PDZ [3]) [µM] | other results |
| --- | --- | --- | --- | --- |
| SWESHKSGGETRL [Cyto13-att, SWESHKSGGETRL] | 157 | more than 14% | – | induction of cell death, in words [2]: induces cell death |
| SWESHKSGGQTRL [Cyto13-vir, SWESHKSGGQTRL] | 568 | 8% | – | fold difference in Kd, Cyto13-vir versus Cyto13-att (PTPN4-PDZ [1]): 4 fold; ΔΔG0=RT ln(Kd(Cyto13-vir)/Kd(Cyto13-att)) (PTPN4-PDZ [1]): 0.76 kcal·mol^−1; Kd (PTPN4-PDZ [1]; [4]): 560 µM; induction of cell death, in words [2]: do not |
| SWERRETEV [SEQ ID NO: 5, SWERRETEV] | – | – | 2 | – |
| SWESHKSGG [Cyto9-Δ] | – | 7% | – | interaction with PTPN4-PDZ, in words (PTPN4-PDZ [1]): does not interact with PTPN4-PDZ; induction of cell death, in words [2]: do not |
| SNRRVYKKMPSIESDV-OH [GluN2A-16, SNRRVYKKMPSIESDV] | – | 29% | – | Kd (PTPN4-PDZ [1]): 42 µM; fold increase in affinity for PTPN4-PDZ compared to Cyto13-att (Cyto-att) (PTPN4-PDZ [1]): four-fold increase; increase of cell death compared to Cyto13-att (U373MG astrocytoma cells): two-fold increase |
| SWEERETEF [SEQ ID NO: 6, SWEERETEF] | – | – | 2.52 | – |
| shepherdin | – | – | – | glioblastoma death, in words (U373MG astrocytoma cells): in a range similar to those obtained with Cyto13-att |
| SWEERETEV [SEQ ID NO: 3, SWEERETEV] | – | – | 1.35 | – |
| SWELYKSEGDARL [DARL-13, SWELYKSEGDARL] | 1280 | – | – | – |
| LNLGNDPDRGTSI [GluD2-13, LNLGNDPDRGTSI] | – | – | – | Kd (PTPN4-PDZ [1]; [4]): 128 µM |
| SWARVSKETPL [SEQ ID NO: 4, SWARVSKETPL] | 1.58 | – | – | – |
| SWEDRETEV [SEQ ID NO: 7, SWEDRETEV] | – | – | 3.88 | – |
| SWESYRSGGEIRL [EIRL-13, SWESYRSGGEIRL] | 1170 | – | – | interaction with PTPN4-PDZ, in words (PTPN4-PDZ [1]): low affinity |
